# pIC50: −log10 of the molar value.
# Molecular target: T1, human BTK (Homo sapiens, UniProt Q06187)
# T1 construct: GST (Glutathione-S-Transferase) (cleaved yes); made in house; host or cells: Spodoptera frugiperda Sf9 cells (baculovirus, Bac-to-Bac)
# Experiment: BTK inhibition assay: BTK-mediated phosphorylation of FAM-labeled substrate 5-FAM-EEPLYWSFPAKKK-NH2 (Caliper LC-3000)
# Type: biochemical
# Conditions: pIC50 = -log(IC50), IC50 molar; residues 382 to 659 of human BTK; incubated at room temperature for 60 minutes; larger values represent higher potency
# Description: The activity of compounds as BTK inhibitors may be determined by a variety of methods, including in vitro and in vivo methods.
# This construct engineers an in-frame translational fusion with the Glutathione-S-Transferase (GST) protein for use in affinity purification. The fusion protein derived from this construct contains a protease recognition sequence to liberate the BTK from the GST affinity tag. High-titer baculoviral stocks, generated using the Bac-to-Bac® system (Invitrogen), are used to express the recombinant protein in Spodoptera frugiperda Sf9 cells in 10 L Wave bags. Recombinant proteins are isolated from cellular extracts by passage over Glutathione Sepharose 4B (GE Healthcare) and the BTK moiety is released from the GST affinity tag by treatment with PreScission protease. The BTK recombinant protein is further purified by size exclusion chromatography (HiLoad 16/60 Superdex 200, GE Healthcare) in a buffer containing 20 mM Hepes (pH 7.4), 50 mM NaCl, 10 mM MgCl2, 0.25 mM TCEP and 0.1 mM EDTA. The purity of the fractions is assessed by SDS PAGE and the peak protein fractions are pooled and concentrated using Amicon Ultra-15 Centrifugal Filter Devices (Millipore).
# The inhibitory properties of compounds relative to BTK is determined using a black 384-well-plate format in a buffer which contains 50 mM Hepes, 10 mM NaCl, 10 mM MgCl2, 0.2 mM EDTA, 0.01% Brij35®, 1 mM DTT, and 0.1 mg/mL BSA at pH 7.3. The test compound is prepared in DMSO using 2-fold serial dilutions for 11 data points, which are added to the buffer so that each dilution contains 3% DMSO. […] The reaction mixtures are incubated at room temperature for 60 minutes and then quenched by adding 25 μL of 50 mM EDTA. To quantify the fluorescent-labeled substrate and product following reaction, the test plate is loaded on a Caliper LC-3000, which measures percent of conversion by microfluidic-based separation.
# The compounds were tested in accordance with the assay described on page 34 of the specification.
# T1 sequence (Q06187 382-659): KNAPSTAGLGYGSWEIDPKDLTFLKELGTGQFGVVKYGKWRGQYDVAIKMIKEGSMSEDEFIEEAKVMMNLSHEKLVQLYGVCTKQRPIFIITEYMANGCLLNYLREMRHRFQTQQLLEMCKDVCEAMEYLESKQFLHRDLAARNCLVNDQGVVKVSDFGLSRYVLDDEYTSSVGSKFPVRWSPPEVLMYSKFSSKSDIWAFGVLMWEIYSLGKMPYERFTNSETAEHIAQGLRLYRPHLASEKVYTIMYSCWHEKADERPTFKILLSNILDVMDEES
row,Compound,pIC50
1,"NC(=O)c1nnc2c(-c3ccc4nc(-c5cccs5)[nH]c4c3)cccc2c1N [Example 79, 4-amino-8-(2-(thiophen-2-yl)-1H-benzo[d]imidazol-6-yl)cinnoline-3-carboxamide]",6.50
2,"Cc1cc(C)cc(-c2nc3ccc(-c4cccc5c(N)c(C(N)=O)nnc45)cc3[nH]2)c1 [Example 80, 4-amino-8-(2-(3,5-dimethylphenyl)-1H-benzo[d]imidazol-6-yl)cinnoline-3-carboxamide]",7.40
3,"NC(=O)c1nnc2c(-c3ccc4nc(CC5CCOCC5)[nH]c4c3)cccc2c1N [Example 81, 4-amino-8-(2-((tetrahydro-2H-pyran-4-yl)methyl)-1H-benzo[d]imidazol-6-yl)cinnoline-3-carboxamide]",5.60
4,"NC(=O)c1nnc2c(-c3ccc4nc(-c5cncs5)[nH]c4c3)cccc2c1N [Example 82, 4-amino-8-(2-(thiazol-5-yl)-1H-benzo[d]imidazol-6-yl)cinnoline-3-carboxamide]",6.70
5,"NC(=O)c1nnc2c(-c3ccc4nc(C5CCCOC5)[nH]c4c3)cccc2c1N (stereo not shown) [Example 83, 4-amino-8-(2-(tetrahydro-2H-pyran-3-yl)-1H-benzo[d]imidazol-6-yl)cinnoline-3-carboxamide]",6.10
6,"NC(=O)c1nnc2c(-c3ccc4nc(C5CCC(F)(F)CC5)[nH]c4c3)cccc2c1N [Example 84, 4-amino-8-(2-(4,4-difluorocyclohexyl)-1H-benzo[d]imidazol-6-yl)cinnoline-3-carboxamide]",6.40
7,"NC(=O)c1nnc2c(N3CCc4cn[nH]c4C3)cccc2c1N [Example 85, 4-amino-8-(4,5-dihydro-1H-pyrazolo[3,4-c]pyridin-6(7H)-yl)cinnoline-3-carboxamide]",6.00
8,"NC(=O)c1nnc2c(N3CCc4[nH]ncc4C3)cccc2c1N [Example 86, 4-amino-8-(6,7-dihydro-1H-pyrazolo[4,3-c]pyridin-5(4H)-yl)cinnoline-3-carboxamide]",5.70
9,"NC(=O)c1nnc2c(-c3ccc4nc(Nc5ccccc5)[nH]c4c3)cccc2c1N [Example 87, 4-amino-8-(2-(phenylamino)-1H-benzo[d]imidazol-6-yl)cinnoline-3-carboxamide]",7.00
10,"NC(=O)c1nnc2c(-c3ccc4nc(NCc5cccs5)[nH]c4c3)cccc2c1N [Example 88, 4-amino-8-(2-(thiophen-2-ylmethylamino)-1H-benzo[d]imidazol-6-yl)cinnoline-3-carboxamide]",8.00
11,"NC(=O)c1nnc2c(-c3ccc4nc(NCc5ccccc5)[nH]c4c3)cccc2c1N [Example 90, 4-amino-8-(2-(benzylamino)-1H-benzo[d]imidazol-6-yl)cinnoline-3-carboxamide]",7.80
12,"CC1CCC(Nc2nc3ccc(-c4cccc5c(N)c(C(N)=O)nnc45)cc3[nH]2)CC1 (stereo not shown) [Example 91, 4-amino-8-(2-(4-methylcyclohexylamino)-1H-benzo[d]imidazol-6-yl)cinnoline-3-carboxamide]",7.10
13,"CN(Cc1ccccc1)c1nc2ccc(-c3cccc4c(N)c(C(N)=O)nnc34)cc2[nH]1 [Example 92, 4-amino-8-(2-(benzyl(methyl)amino)-1H-benzo[d]imidazol-6-yl)cinnoline-3-carboxamide]",6.00
14,"NC(=O)c1nnc2c(-c3ccc4nc(NCC5CCCC5)[nH]c4c3)cccc2c1N [Example 93, 4-amino-8-(2-(cyclopentylmethylamino)-1H-benzo[d]imidazol-6-yl)cinnoline-3-carboxamide]",8.10
15,"NC(=O)c1nnc2c(-c3ccc4nc(NCC5C6CC7CC(C6)CC5C7)[nH]c4c3)cccc2c1N (stereo not shown) [Example 94, 8-(2-((adamantan-2-ylmethyl)amino)-1H-benzo[d]imidazol-6-yl)-4-aminocinnoline-3-carboxamide]",7.20
16,"Cc1ccc(CNc2nc3ccc(-c4cccc5c(N)c(C(N)=O)nnc45)cc3[nH]2)cc1 [Example 95, 4-amino-8-(2-(4-methylbenzylamino)-1H-benzo[d]imidazol-6-yl)cinnoline-3-carboxamide]",7.20
17,"Cc1ccc2c(N)c(C(N)=O)nnc2c1-c1ccc2c(C#N)n[nH]c2c1 [Example 96, 4-amino-8-(3-cyano-1H-indazol-6-yl)-7-methylcinnoline-3-carboxamide]",6.80
18,"Cc1ccc2c(N)c(C(N)=O)nnc2c1-c1cnc2ncn(C)c2c1 [Example 97, 4-amino-7-methyl-8-(1-methyl-1H-imidazo[4,5-b]pyridin-6-yl)cinnoline-3-carboxamide]",7.00
19,"Cc1ccc2c(N)c(C(N)=O)nnc2c1-c1cnc2c(c1)ncn2C [Example 98, 4-amino-7-methyl-8-(3-methyl-3H-imidazo[4,5-b]pyridin-6-yl)cinnoline-3-carboxamide]",5.30

row,Compound,pIC50
1,"Cc1ccc2c(N)c(C(N)=O)nnc2c1-c1ccc2c(C)n[nH]c2c1 [Example 99, 4-amino-7-methyl-8-(3-methyl-1H-indazol-6-yl)cinnoline-3-carboxamide]",7.20
2,"Cc1ccc2c(N)c(C(N)=O)nnc2c1-c1ccc2c(F)n[nH]c2c1 [Example 100, 4-amino-8-(3-fluoro-1H-indazol-6-yl)-7-methylcinnoline-3-carboxamide]",7.60
3,"Cc1ccc2c(N)c(C(N)=O)nnc2c1-c1cc(F)c2nc[nH]c2c1 [Example 101, 4-amino-8-(4-fluoro-1H-benzo[d]imidazol-6-yl)-7-methylcinnoline-3-carboxamide]",7.50
4,"Cc1ccc2c(N)c(C(N)=O)nnc2c1-c1cc(F)c2cn[nH]c2c1 [Example 102, 4-amino-8-(4-fluoro-1H-indazol-6-yl)-7-methylcinnoline-3-carboxamide]",7.60
5,"COc1cc2[nH]ncc2cc1-c1cccc2c(N)c(C(N)=O)nnc12 [Example 103, 4-amino-8-(6-methoxy-1H-indazol-5-yl)cinnoline-3-carboxamide]",8.40
6,"Cc1ccc2c(N)c(C(N)=O)nnc2c1-c1ccc2cn[nH]c2c1F [Example 104, 4-amino-8-(7-fluoro-1H-indazol-6-yl)-7-methylcinnoline-3-carboxamide]",7.50
7,"NC(=O)c1nnc2c(-c3cc4[nH]ncc4cc3Cl)cccc2c1N [Example 105, 4-amino-8-(5-chloro-1H-indazol-6-yl)cinnoline-3-carboxamide]",7.80
8,"Cc1ccc2c(N)c(C(N)=O)nnc2c1-c1ccc2c(C3CC3)n[nH]c2c1 [Example 106, 4-amino-8-(3-cyclopropyl-1H-indazol-6-yl)-7-methylcinnoline-3-carboxamide]",6.30
9,"NC(=O)c1nnc2c(-c3cc4[nH]ncc4cc3Cl)ccc(F)c2c1N [Example 107, 4-amino-8-(5-chloro-1H-indazol-6-yl)-5-fluorocinnoline-3-carboxamide]",7.80
10,"Cc1ccc2c(N)c(C(N)=O)nnc2c1-c1ccc2c(Cl)n[nH]c2c1 [Example 108, 4-amino-8-(3-chloro-1H-indazol-6-yl)-7-methylcinnoline-3-carboxamide]",7.40
11,"COc1cc2[nH]ncc2cc1-c1ccc(F)c2c(N)c(C(N)=O)nnc12 [Example 109, 4-amino-5-fluoro-8-(6-methoxy-1H-indazol-5-yl)cinnoline-3-carboxamide]",8.70
12,"COc1cc2cn[nH]c2cc1-c1cccc2c(N)c(C(N)=O)nnc12 [Example 110, 4-amino-8-(5-methoxy-1H-indazol-6-yl)cinnoline-3-carboxamide]",8.40
13,"COc1cc2cn[nH]c2cc1-c1ccc(F)c2c(N)c(C(N)=O)nnc12 [Example 111, 4-amino-5-fluoro-8-(5-methoxy-1H-indazol-6-yl)cinnoline-3-carboxamide]",8.70
14,"Cc1ccc2c(N)c(C(N)=O)nnc2c1-c1ccc2nncn2c1 [Example 112, 8-([1,2,4]triazolo[4,3-a]pyridin-6-yl)-4-amino-7-methylcinnoline-3-carboxamide]",7.00
15,"Cc1ccc2c(N)c(C(N)=O)nnc2c1-c1ccc2cncn2c1 [Example 113, 4-amino-8-(imidazo[1,5-a]pyridin-6-yl)-7-methylcinnoline-3-carboxamide]",7.70
16,"Cc1ccc2c(N)c(C(N)=O)nnc2c1-c1ccn2cncc2c1 [Example 114, 4-amino-8-(imidazo[1,5-a]pyridin-7-yl)-7-methylcinnoline-3-carboxamide]",8.40
17,"NC(=O)c1nnc2c(-c3ccc4nc(-c5ccccc5)[nH]c4c3)cccc2c1N [Example 115, 4-amino-8-(2-phenyl-1H-benzo[d]imidazol-6-yl)cinnoline-3-carboxamide]",7.10
18,"NC(=O)c1nnc2c(-c3ccc4nc(-c5ccc(F)cc5)[nH]c4c3)cccc2c1N [Example 116, 4-amino-8-(2-(4-fluorophenyl)-1H-benzo[d]imidazol-6-yl)cinnoline-3-carboxamide]",7.40
